Data set [1] in a line: Half life in rat, iv. It counts as ADME. The note with it: in vivo.
For data set [2], the system named is HeLa. Kind of data set: Antitumor activity against human HeLa cells xenografted in mouse model assessed as reduction in tumor growth at 100 mg/kg bid relative to control. The data set is classed as functional. More on the design: scale not given: the % may be the effect or the level left.
The nature of data set [3]: Half life in mouse. It counts as ADME, organism-based. Particulars: in vivo.
The nature of data set [4]: Stability in rat assessed as intrinsic clearance. The data set is classed as ADME. The note with it: CLH.
Data set [5] is described as follows: Oral bioavailability in rat at 3 mg/kg relative to control. Particulars: in vivo. The data set is classed as ADME, organism-based.
Data set [6] has as its system HeLa. In words: Antitumor activity against human HeLa cells xenografted in mouse model assessed as reduction in tumor growth at 75 mg/kg bid relative to control. It counts as functional. More on the design: scale not given: the % may be the effect or the level left.
Data set [7] has as its system HeLa. In words: Antitumor activity against human HeLa cells xenografted in mouse assessed as reduction in tumor growth at 30 mg/kg bid relative to control. The data set is classed as functional. More on the design: scale not given: the % may be the effect or the level left.
For data set [8], the system named is HCT-116. In words: Antiproliferative activity against human HCT-116 cells assessed as inhibition of cell proliferation incubated for 24 hrs by MTT assay. The data set is classed as functional, cell-based. Particulars: HCT-116, 24 h.
Data set [9] deals with HL-60. In words: Antiproliferative activity against human HL-60 cells assessed as inhibition of cell proliferation incubated for 24 hrs by MTT assay. The data set is classed as functional, cell-based. The note with it: HL-60, 24 h.
The subject of data set [10] is A549. In words: Antiproliferative activity against human A549 cells assessed as inhibition of cell proliferation incubated for 24 hrs by MTT assay. It counts as functional, cell-based. The note with it: A549, 24 h.
The test system of data set [11] is Rattus norvegicus. In words: Antihypertensive activity in spontaneously hypertensive rat model assessed as change in blood pressure at 1 mg/kg, po measured after 3 hrs. The data set is classed as functional.
Data set [12] deals with Rattus norvegicus. Kind of data set: Antihypertensive activity in spontaneously hypertensive rat model assessed as change in heart rate at 1 umol/kg, po measured after 3 hrs. It counts as functional.
Data set [13] has as its system Rattus norvegicus. Kind of data set: Antihypertensive activity in spontaneously hypertensive rat model assessed as change in blood pressure at 1 mg/kg, po measured after 6 hrs. The data set is classed as functional.
Data set [14] relates to Rattus norvegicus. In words: Antihypertensive activity in spontaneously hypertensive rat model assessed as change in heart rate at 10 mg/Kg, po measured after 6 hrs. The data set is classed as functional.
Data set [15] relates to Rattus norvegicus. Kind of data set: Antihypertensive activity in spontaneously hypertensive rat model assessed as change in blood pressure at 1 mg/kg, po measured after 10 hrs. The data set is classed as functional.
Data set [16] relates to Rattus norvegicus. Kind of data set: Antihypertensive activity in spontaneously hypertensive rat model assessed as change in heart rate at 1 mmol/Kg, po measured after 10 hrs. It counts as functional.
For data set [17], the species on record is Rattus norvegicus. Kind of data set: Antihypertensive activity in spontaneously hypertensive rat model assessed as reduction in pulmonary arterial pressure. The data set is classed as functional.
The species named for data set [18] is Rattus norvegicus. In words: Antihypertensive activity in spontaneously hypertensive rat model assessed as reduction in systemic arterial pressure. The data set is classed as functional.
Data set [19] can be described thus: Inhibition of HIF (unknown origin). Also noted: species or system Homo sapiens.
The nature of data set [20]: Lipophilicity, log D of compound. It counts as physicochemical. Particulars: octanol/water.
Data set [21] deals with HEK-293T. Kind of data set: Antiproliferative activity against human HEK293T cells assessed as inhibition of cell proliferation by MTT assay. The data set is classed as functional, cell-based.
Data set [22] deals with HEK-293T. Kind of data set: Antitumor activity against human HEK293T cells xenografted in mouse model assessed as reduction in tumor growth at 100 mg/kg bid relative to control. It counts as functional. Also noted: scale not given: the % may be the effect or the level left.
For data set [23], the target named is Mitogen-activated protein kinase 14 (Homo sapiens) (UniProt Q16539). Kind of data set: Inhibition of recombinant p38alpha MAPK (unknown origin) at 10 uM preincubated for 10 mins followed by substrate addition and measured after 40 mins in the presence of ATP by ADP-Glo assay. The note with it: time 60.0 min.
Data set [24] deals with T1, MAP kinase p38 (Homo sapiens) (UniProt O15264+Q15759+Q16539+P53778). Kind of data set: Inhibition of p38 (unknown origin) at 10 uM relative to control. The data set is classed as protein assay.
Data set [25] concerns the target T1, MAP kinase p38 (Homo sapiens). Kind of data set: Inhibition of p38 (unknown origin) at 1.0 uM relative to control. It counts as protein assay.
Data set [26] has as its target T2, c-Jun N-terminal kinase, JNK (Homo sapiens) (UniProt P45983+P53779+P45984). Kind of data set: Inhibition of JNK (unknown origin) at 10 uM relative to control. It counts as protein assay.
The target in data set [27] is T2, c-Jun N-terminal kinase, JNK (Homo sapiens). In words: Inhibition of JNK (unknown origin) at 1.0 uM relative to control. The data set is classed as protein assay.
Data set [28] deals with THP-1. Kind of data set: Antinflammatory activity in human THP-1 cells assessed as reduction of TNF-alpha at 10 uM relative to control. The data set is classed as functional. More on the design: scale not given: the % may be the effect or the level left.
Data set [29] deals with THP-1. In words: Antinflammatory activity in human THP-1 cells assessed as reduction of TNF-alpha at 1.0 uM relative to control. It counts as functional.
Data set [30] is described as follows: Neuroprotective activity against neurons (unknown origin) assessed as rescue by measuring cytokine level at 10 uM relative to control. The data set is classed as functional, Homo sapiens, Neuron.
The nature of data set [31]: Neuroprotective activity against neurons (unknown origin) assessed as rescue by measuring cytokine level at 1.0 uM relative to control. The data set is classed as functional, Homo sapiens, Neuron.
Data set [32] is described as follows: Drug concentration in mouse plasma at 10 mg/kg, iv administered once daily measured after 2 hrs. It counts as ADME, organism-based.
Data set [33] can be described thus: Drug concentration in mouse brain at 10 mg/kg, iv administered once daily measured after 2 hrs. It counts as ADME, organism-based. The note with it: read-out: Ct.
Data set [34] has as its target Tumor necrosis factor (Homo sapiens) (UniProt P01375). In words: Inhibition of TNF-alpha secretion in human THP-1 cells. More on the design: concentration or dose not given beside the values. Particulars: concentration not given here.
In data set [35] the target is Indoleamine 2,3-dioxygenase 1 (Homo sapiens, UniProt P14902). In words: Inhibition of IDO1 (unknown origin).
Data set [36] deals with HeLa. Kind of data set: Antiproliferative activity against human HeLa cells assessed as reduction in cell viability by MTT assay. It counts as functional, cell-based.
Data set [37] relates to HCT-116. In words: Antiproliferative activity against human HCT-116 cells assessed as inhibition of cell proliferation by MTT assay. It counts as functional, cell-based.
The nature of data set [38]: Antiproliferative activity against mouse Lewis lung carcinoma cell line cells assessed as inhibition of cell proliferation by MTT assay. The data set is classed as functional, cell-based.
Data set [39] concerns HCT-116. Kind of data set: Antitumor activity against human HCT-116 cells xenografted in mouse model assessed as reduction in tumor growth at 100 mg/kg bid relative to control. The data set is classed as functional. More on the design: scale not given: the % may be the effect or the level left.
Data set [40] can be described thus: Inhibition of LPS induced TNF-alpha secretion in human THP-1 cells pretreated with LPS for 1 hr followed by compound addition and measured after 3 hrs by ELISA method. It counts as functional, cell-based.
The nature of data set [41]: Inhibition of MAPK p38 (unknown origin). More on the design: species or system Homo sapiens.

Results on nine compounds are retold here after ChEMBL document CHEMBL5236544, “Furazans in Medicinal Chemistry” (J Med Chem, 2021).

Values joined by “and” are separate entries in the source; they are usually repeats but may differ in a detail not shown here. Equal entries are not always repeated.

Mitogen-activated protein kinase 14 (Homo sapiens), sequence (Q16539 whole entry): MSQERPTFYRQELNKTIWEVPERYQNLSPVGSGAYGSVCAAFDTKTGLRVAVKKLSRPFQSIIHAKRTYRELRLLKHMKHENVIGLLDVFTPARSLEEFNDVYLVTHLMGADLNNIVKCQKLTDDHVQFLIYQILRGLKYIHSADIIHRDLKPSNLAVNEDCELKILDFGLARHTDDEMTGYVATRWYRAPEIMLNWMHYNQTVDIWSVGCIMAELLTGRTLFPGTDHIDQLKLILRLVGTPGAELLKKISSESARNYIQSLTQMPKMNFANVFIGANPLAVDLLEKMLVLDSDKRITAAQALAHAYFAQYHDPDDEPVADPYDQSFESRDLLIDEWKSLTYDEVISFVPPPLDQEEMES
Indoleamine 2,3-dioxygenase 1, sequence (P14902 whole entry): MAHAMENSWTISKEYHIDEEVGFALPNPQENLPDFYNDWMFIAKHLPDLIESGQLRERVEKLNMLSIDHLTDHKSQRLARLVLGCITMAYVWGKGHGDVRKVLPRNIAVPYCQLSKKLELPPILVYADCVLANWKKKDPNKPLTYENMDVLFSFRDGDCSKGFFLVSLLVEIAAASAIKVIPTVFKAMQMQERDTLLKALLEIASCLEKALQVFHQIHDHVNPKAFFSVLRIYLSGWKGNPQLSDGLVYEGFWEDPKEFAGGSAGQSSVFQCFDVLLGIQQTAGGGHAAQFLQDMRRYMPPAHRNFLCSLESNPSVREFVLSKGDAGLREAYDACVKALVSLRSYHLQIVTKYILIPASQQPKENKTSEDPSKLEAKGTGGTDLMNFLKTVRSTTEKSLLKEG
Tumor necrosis factor (Homo sapiens), sequence (P01375 whole entry, looked up): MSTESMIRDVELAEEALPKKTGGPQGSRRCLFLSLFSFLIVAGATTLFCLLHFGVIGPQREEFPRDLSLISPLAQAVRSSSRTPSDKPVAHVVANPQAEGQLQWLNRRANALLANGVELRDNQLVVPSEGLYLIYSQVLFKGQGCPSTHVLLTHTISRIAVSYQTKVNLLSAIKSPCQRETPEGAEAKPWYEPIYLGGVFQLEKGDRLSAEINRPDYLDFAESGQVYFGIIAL

Regarding `O=C(CNc1nonc1/C(=N/O)N[C@H]1Cc2ccc(F)cc21)NCCO`, the half-life in data set [1] was 3.7 h. In data set [2], the Activity is 15%.

Compound `NS(=O)(=O)NCCNc1nonc1/C(=N/O)Nc1ccc(F)c(Br)c1` [EPACADOSTAT] displayed a half-life in [3] of under 0.5 h. Besides, in [4], the CLint scaled amounted to 11.7 mL/min/kg. Besides, the bioavailability in data set [5] turned out to be 11%. The results for the Activity in [6] and in data set [7] were 50% and 56%, respectively.

`Nc1nonc1C(=O)N/N=C1\c2ccccc2-c2nc3nonc3nc21`: the EC50 in data set [8] came to 1.6 µM; in data set [9] it was 1.2 µM; in data set [10] it was 0.8 µM.

Consider `CCn1c(-c2nonc2N)nc2cncc(C(=O)N3CC[C@H](N)C3)c21`, for which the Activity in data set [11] is reported as -20 mmHg; in [12] it was 20 bpm; in data set [13], -20 mmHg; in [14] it was -40 bpm; in [15], -5 mmHg; in data set [16], -25 bpm. Besides, the Activity in data set [17] is -13 mmHg; in [18], -40 mmHg.

Compound `CS(=O)(=O)c1ccc(Oc2cc(F)cc(C#N)c2)c2c1[C@H](O)[C@H](F)[C@@H]2F` [BELZUTIFAN] registered a concentration for half-maximal inhibition (IC50) in data set [19] of 9 µM. In addition, the log distribution coefficient (logD) in data set [20] was found to be 1.2.

In data set [3], `NS(=O)(=O)N1CCC[C@@H](CNc2nonc2/C(=N/O)Nc2ccc(F)c(Br)c2)C1` showed a half-life of 3.8 h. Further, the concentration giving a half-maximal response (EC50) in [21] was 0.069 µM. Further, the Activity in data set [22] worked out at 25%.

As to `CCCOc1ccc(Nc2nc3nonc3nc2N2CCC(Oc3ccc(Cl)cc3)CC2)cc1`, the inhibition in [23] is 99%; in [24], 99%; in data set [25], 37%; in [26], 98%; in [27], 49%; in data set [34] it was 74%. Moreover, the values for the Activity in data set [28], in data set [30] and in data set [31] were 74%, 51% and 33%, respectively. Also, in data set [29], the inhibition at 1 µM was determined as 51%. Further, the concentration at 2 h in data set [32] was determined as 430 nM; in data set [33], 800 nM.

For `O=C(NCCNc1nonc1/C(=N/O)Nc1ccc(F)c(Br)c1)c1cccc(N(CCCl)CCCl)c1`, the concentration for half-maximal inhibition (IC50) in data set [35] was 0.13 µM. The results for the EC50 in [36], in data set [37] and in data set [38] were 0.27 µM, 5.1 µM and 18 µM, respectively. Further, the Activity in data set [39] was 58% and 48%.

As for `Cc1ccc(Cl)cc1Nc1ccc([N+](=O)[O-])c2nonc12`, the EC50 in data set [40] turned out to be 1.8 µM. Moreover, the IC50 in data set [41] turned out to be 6.3 µM.
